The results in this text go back to US9927437B2, “Treating neurodegenerative disease” (THE BRIGHAM AND WOMEN'S HOSPITAL, INC., priority 2013, dated 2018).

“Also recorded” adds a separate entry of the source.

For series [1], the system named is B4GALT5/6. In words: Quantification of LacCer levels in the CNS (LC-MS/MS). The series is classed as in vivo, mouse. Particulars: NOD EAE. How it is done: Chemical standards of LacCer (d18:1/16:0) and LacCer (d18:1/18:0) were obtained from Avanti Polar Lipids. Quantification of LacCer (d18:1/16:0) and LacCer (d18:1/18:0) was achieved by LC-MS/MS analysis performed on an Agilent (Agilent Technologies, Santa Clara, Calif.) 6460 triple-quadrupole LC/MS/MS system. The fragments from the [M+H]^+ ions for LacCer and internal standard were subjected to collision induced dissociation and the two major types of fragment ions were monitored via electrospray ionization in the positive ion mode in multiple reaction monitoring (MRM) mode for each ion. These two MRM transitions corresponded to the loss of the neutral lactosyl moiety, and to the formation of the lactose ion. Specifically, the MRM transitions used for quantification for LacCer (d18:1/16:0) and LacCer(d18:1/18:0) were 862.5>[…] and 890.6>548.5, respectively. Secondary confirmatory MRM transitions for LacCer(d18:1/16:0) and LacCer(d18:1/18:0) of 862.5>264.3 and 890.6>264.3 were also monitored. Mass spectrometer parameter settings were gas temp (325° C.), gas flow (12 L/min), nebulizer (25 psi), sheath gas temp (400° C.), sheath gas flow (12 L/min), capillary voltage (4000v), and nozzle voltage (500v). Liquid chromatography conditions with an a Phenomenex Gemini C18 column 4.6×50 mm 5 μm particle size was used for separation. Chromatography method the following flow rate=0.4 mLs/min; solvent A=5 mM ammonium formate in 5% MeOH and 0.1% formic acid v/v/v; solvent B=80% 2-propanol, 15% methanol, 5% water and 0.1% formic acid (v/v/v/v). […] Standard curve mixture was analyzed at various concentrations between 0.10 nM to 3.3 μM in LacCer (d18:1/16:0) and an internal standard concentration of 1 μM. The lower limit of quantification was estimated at 1 nM and a R^2 of 0.9969 was obtained using linear regression analysis. […]
The brain tissue was weighed and homogenized using a Dounce homogenizer (VWR), in the extraction solvent using a Bligh and Dyer type liquid-liquid extraction. […] The dried sample was reconstituted in 100 μl of 2:1 chloroform-methanol, and analyzed using the HPLC-MS.

Series [2] deals with EAE NOD mice. In words: EAE in NOD mice, progressive phase (clinical score, histopathology, body weight). It counts as in vivo.
The test system of series [3] is Ly6C^high monocytes. In words: Monocytes migration assay (transwell, CCL-2). Particulars: 1 h pre-treatment, CCL-2 50 ng/ml, 3 h. The series is classed as cell-based, mouse. An excerpt: FIGS. 4a-m. B4GALT6 regulates ccl2 transcriptional activity in astrocytes. (a) Murine ccl2 promoter. (b) Luciferase activity in 293T cells transfected with the ccl2 luciferase reporter plus one of the following constructs encoding IRF-1, p65 or an empty control vector (Empty). Results are relative to secreted alkaline phosphatase activity, presented as fold induction from empty vector. Data from three independent experiments, statistical analysis by Student's t-test. (c) ChIP analysis of the interaction of NF-κB, and IRF-1 with the ccl2 promoter in primary cultured astrocytes, pre-treated with PDMP and LacCer and activated with LPS/IFNγ (as in FIG. 3), 2 hours following LPS/IFNγ induction. (d-h) Recruitment of inflammatory monocytes (defined either as of CD11b^+ Ly6C^high or CD11b^+CD45^high cells) to the CNS of EAE NOD mice treated with PDMP or vehicle, as in (FIG. 1k), analyzed by flow cytometry and presented as cell frequency (e, g) and total cell numbers (f, h). Representative data of three independent experiments. […] (i) The frequency and number of CD11b^+ Ly6C^high monocytes as determined in the CNS 10 days after the i.c.v. injection of astrocytes-specific shRNA lentivirus as in (FIG. 3j). […] (j) monocytes were pre-treated for 1 h with PDMP, LacCer, both (LacCer+PDMP), or vehicle, and monocytes chemotaxis was measured using a transwell chamber system. […]

As to `CCCCCCCCCC(=O)N[C@H](CN1CCOCC1)[C@H](O)c1ccccc1` [PDMP, D-threo-1-phenyl-2-decanoylamino-3-morpholino-1-propanol], in series [1] (20 mg/kg twice a day from day 40), the “CNS LacCer levels” value is given as “significant decrease”. In addition, the “disease progression, axonal loss” value in series [2] (NOD EAE, 20 mg/kg i.p. twice a day from day 40, lumbar spinal cord, Bielschowsky's silver stain) is given as “suppression of disease progression”. Besides, the “disease progression, demyelination” value in series [2] (NOD EAE, 20 mg/kg i.p. twice a day from day 40, lumbar spinal cord, Luxol fast blue) was “suppression of disease progression”. Moreover, in series [2] (NOD EAE, 20 mg/kg i.p. twice a day from day 40 after EAE induction), the “disease progression, clinical score” value is “suppression of disease progression”. Moreover, the “monocyte migration in a CCL-2 gradient” value in series [3] is listed as “did not affect; also recorded: no significance effect”.

As for “shB4galt6: lentivirus-delivered shRNA against b4galt6 (TRCN0000334278; SEQ ID NO:3) (guide CGATGGACTGAACAATTTATTCTCGAGAATAAATTGTTCAGTCCACG)”, the “CNS LacCer levels” value in series [1] (i.c.v. 1×10^7 IU lentivirus at day 35, 10 days after injection) was “significant decrease”. Also, the EAE disease progression result in series [2] (NOD EAE, i.c.v. 1×10^7 IU lentivirus at day 35) is given as “suppressed disease progression; also recorded: ameliorates disease severity”.

For the molecule lactosylceramide [LacCer], the “EAE disease clinical symptoms” value in series [2] (NOD mice, 10 μg per mouse i.p. every 3 days from day 35 after EAE induction) is “significant worsening of disease clinical symptoms”. In series [3], the “monocyte migration in a CCL-2 gradient” value was “did not affect; also recorded: no significance effect”.
